Among the data in BindingDB's records for doi:10.1016/j.bmcl.2009.09.123 (Genomics Institute of The Novartis Research Foundation, 2009) are IC50 values, retold here.

Assay [1] is described as follows: Inhibition of Tel-fused KDR expressed in mouse BAF3 cells.
Assay [2] can be described thus: Inhibition of Tel-fused LYN expressed in mouse BAF3 cells.
Assay [3] is described as follows: Inhibition of Tel-fused SRC expressed in mouse BAF3 cells.
Assay [4] can be described thus: Inhibition of Tel-fused LCK expressed in mouse BAF3 cells.

Broadly, the IC50 is the concentration that gives 50% inhibition. A low value points to greater potency in that assay. Turning to `Cc1cccc(NC(=O)c2ccc(C)c(Nc3nc4ccccc4n3-c3cc(N)ncn3)c2)c1` [3-(1-(6-aminopyrimidin-4-yl)-1H-benzo[d]imidazol-2-ylamino)-4-methyl-N-m-tolylbenzamide], the IC50 was 1020 nM in assay [1], 1080 nM in assay [2], 7170 nM in assay [3] and 83 nM in assay [4].
The like results for `Cc1ccc(C(=O)Nc2ccccc2)cc1Nc1nc2ccccc2n1-c1cc(N)ncn1` [3-(1-(6-aminopyrimidin-4-yl)-1H-benzo[d]imidazol-2-ylamino)-4-methyl-N-phenylbenzamide] were, in that order, 8820 nM, 5510 nM, 6170 nM and 2280 nM.
Regarding `Cc1ccc(C(=O)Nc2cccc(C(F)(F)F)c2)cc1Nc1nc2ccccc2n1-c1cc(NCCN2CCN(C)CC2)ncn1` [4-methyl-3-(1-(6-(2-(4-methylpiperazin-1-yl)ethylamino)pyrimidin-4-yl)-1H-benzo[d]imidazol-2-ylamino)-N-(3-(trifluoromethyl)phenyl)benzamide], the IC50 in assay [1] was found to be 185 nM; in assay [2] it was 113 nM; in assay [3], 527 nM; in assay [4] it was 45 nM.
The like results for `Cc1ccc(C(=O)Nc2cccc(C(C)C)c2)cc1Nc1nc2ccccc2n1-c1cc(N)ncn1` [3-(1-(6-aminopyrimidin-4-yl)-1H-benzo[d]imidazol-2-ylamino)-N-(3-isopropylphenyl)-4-methylbenzamide] were, in that order, 17 nM, 15 nM, 21 nM and 7 nM.
For `Cc1ccc(NC(=O)c2cc(C3CC3)n[nH]2)cc1Nc1nc2ccccc2n1-c1cc(N)ncn1` [N-(3-(1-(6-aminopyrimidin-4-yl)-1H-benzo[d]imidazol-2-ylamino)-4-methylphenyl)-3-cyclopropyl-1H-pyrazole-5-carboxamide], the IC50 was 48 nM in assay [1], 96 nM in assay [2], 56 nM in assay [3] and 50 nM in assay [4].
The like results for `Cc1ccc(C(=O)Nc2cccc(C(F)(F)F)c2)cc1Nc1nc2ccccc2n1-c1cc(NCCCN2CCN(C)CC2)ncn1` [4-methyl-3-(1-(6-(3-(4-methylpiperazin-1-yl)propylamino)pyrimidin-4-yl)-1H-benzo[d]imidazol-2-ylamino)-N-(3-(trifluoromethyl)phenyl)benzamide] were, in that order, 117 nM, 84 nM, 364 nM and 23 nM.
With `Cc1cccc(NC(=O)c2ccc(C)c(Nc3nc4ccccc4n3-c3cc(NCCCN4CCN(C)CC4)ncn3)c2)c1` [4-methyl-3-(1-(6-(3-(4-methylpiperazin-1-yl)propylamino)pyrimidin-4-yl)-1H-benzo[d]imidazol-2-ylamino)-N-m-tolylbenzamide], the half-maximal inhibitory concentration (IC50) in assay [1] turned out to be 1110 nM; in assay [2], 1230 nM; in assay [3], 1410 nM; in assay [4] it was 337 nM.
For `Cc1cc(NC(=O)c2ccc(C)c(Nc3nc4ccccc4n3-c3cc(N)ncn3)c2)ccn1` [3-(1-(6-aminopyrimidin-4-yl)-1H-benzo[d]imidazol-2-ylamino)-4-methyl-N-(2-methylpyridin-4-yl)benzamide], the IC50 is 135 nM in assay [1], greater than 10000 nM in assay [2], greater than 10000 nM in assay [3] and 702 nM in assay [4].
As to `Cc1ccc(NC(=O)c2cccc(C(F)(F)F)c2)cc1Nc1nc2ccccc2n1-c1cc(NCCCCN)ncn1` [N-(3-(1-(6-(4-aminobutylamino)pyrimidin-4-yl)-1H-benzo[d]imidazol-2-ylamino)-4-methylphenyl)-3-(trifluoromethyl)benzamide], the IC50 in assay [1] is 599 nM; in assay [2] it was 457 nM; in assay [3], 1660 nM; in assay [4], 366 nM.
As for `Cc1ccc(C(=O)Nc2cccc(C(C)(C)C)c2)cc1Nc1nc2ccccc2n1-c1cc(N)ncn1` [3-(1-(6-aminopyrimidin-4-yl)-1H-benzo[d]imidazol-2-ylamino)-N-(3-tert-butylphenyl)-4-methylbenzamide], the IC50 was 52 nM in assay [1], 16 nM in assay [2], 202 nM in assay [3] and 16 nM in assay [4].
Turning to `Cc1ccc(NC(=O)c2cc(CN3CCN(C)CC3)n(C(C)(C)C)n2)cc1Nc1nc2ccccc2n1-c1cc(N)ncn1` [N-(3-(1-(6-aminopyrimidin-4-yl)-1H-benzo[d]imidazol-2-ylamino)-4-methylphenyl)-1-tert-butyl-5-((4-methylpiperazin-1-yl)methyl)-1H-pyrazole-3-carboxamide], the IC50 in assay [1] amounted to 63 nM; in assay [2], 88 nM; in assay [3], 249 nM; in assay [4], 18 nM.
The like results for `Cc1ccc(C(=O)Nc2cccc(C(F)(F)F)c2)cc1Nc1nc2ccccc2n1-c1cc(NCCC#N)ncn1` [3-(1-(6-(2-cyanoethylamino)pyrimidin-4-yl)-1H-benzo[d]imidazol-2-ylamino)-4-methyl-N-(3-(trifluoromethyl)phenyl)benzamide] were, in that order, 245 nM, 468 nM, 1220 nM and 275 nM.
On to `Cc1cccc(C(=O)Nc2ccc(C)c(Nc3nc4ccccc4n3-c3cc(N)ncn3)c2)c1` [N-(3-(1-(6-aminopyrimidin-4-yl)-1H-benzo[d]imidazol-2-ylamino)-4-methylphenyl)-3-methylbenzamide], for which the half-inhibitory concentration (IC50) in assay [1] stood at 280 nM; in assay [2] it was 82 nM; in assay [3], 490 nM; in assay [4] it was 32 nM.
For `Cc1ccc(NC(=O)c2cccc(C(F)(F)F)c2)cc1Nc1nc2ccccc2n1-c1cc(NCCc2ccccn2)ncn1` [N-(4-methyl-3-(1-(6-(2-(pyridin-2-yl)ethylamino)pyrimidin-4-yl)-1H-benzo[d]imidazol-2-ylamino)phenyl)-3-(trifluoromethyl)benzamide], the IC50 in assay [1] came out at 549 nM; in assay [2], 259 nM; in assay [3] it was 524 nM; in assay [4] it was 171 nM.
Taken in the same sequence, the figures for `COc1cc(-n2c(Nc3cc(NC(=O)c4cccc(C(F)(F)F)c4)ccc3C)nc3ccccc32)ncn1` [N-(3-(1-(6-methoxypyrimidin-4-yl)-1H-benzo[d]imidazol-2-ylamino)-4-methylphenyl)-3-(trifluoromethyl)benzamide] were greater than 10000 nM, greater than 10000 nM, greater than 10000 nM and greater than 10000 nM.
Taken in the same sequence, the figures for `Cc1cccc(NC(=O)c2ccc(C)c(Nc3nc4ccccc4n3-c3cc(NCCCCN(C)C)ncn3)c2)c1` [3-(1-(6-(4-(dimethylamino)butylamino)pyrimidin-4-yl)-1H-benzo[d]imidazol-2-ylamino)-4-methyl-N-m-tolylbenzamide] were 1500 nM, 1380 nM, 1270 nM and 531 nM.
In the case of `Cc1ccc(NC(=O)c2cc(Cl)cc(Cl)c2)cc1Nc1nc2ccccc2n1-c1cc(N)ncn1` [N-(3-(1-(6-aminopyrimidin-4-yl)-1H-benzo[d]imidazol-2-ylamino)-4-methylphenyl)-3,5-dichlorobenzamide], the IC50 came to 6360 nM in assay [1], 3610 nM in assay [2], 9690 nM in assay [3] and 1070 nM in assay [4].
